Source: article PMC4674756, “NMR structure and function of Helicoverpa armigera sterol carrier protein-2, an important insecticidal target from the cotton bollworm” (Scientific Reports, 2015)

Columns and labels:
[1] = test system: Helicoverpa armigera larvae; experiment: Cholesterol levels in fat body of larvae treated with SCP-2 inhibitors; assay type: in vivo; conditions: fat body dissected at 5th instar
Description: To investigate the effects of SCPI suppression on cholesterol absorption and accumulation in the fat body, in vivo experiments were conducted. The inhibitory effects of SCPIs on cholesterol uptake were tested at the early stages of 3rd and 4th instar larvae. H. armigera larvae were treated with SCPI-1 and mangostin. Because the fat body of insects is the main tissues of cholesterol storage, the fat bodies of the treated larvae were dissected at 5th instar and the concentration of cholesterol in the fat body was measured. […] Similarly, for the mangostin treatment group, there was a 2-fold decrease in the cholesterol levels (p = 0.05) (Fig. 9B 3rd) when the treatment started at 3rd instar stadium. […]
Figure 9 The levels of cholesterol in Helicoverpa armigera larvae treated by SCP-2 inhibitors. The cholesterol levels in the fat body of Helicoverpa armigera larvae which were treated with two inhibitors (AeSCPI-1 and mangostin) were determined. […] The concentration of cholesterol and total protein from each sample were measured. […] Larvae were treated and samples were measured in the same way as AeSCPI-1. […]
The H.armigera larvae were reared according to previous methods. […] Because the fat body of insects is the main tissue of cholesterol storage, the fat bodies of the treated larvae were dissected at 5th instar and the concentration of cholesterol in the fat body was measured. […]

HaSCP-2 = HaSCP-2 (Helicoverpa armigera, UniProt K7NSY9); experiment: biochemical
Description: In the presence of each SCPI with an increasing concentrations (0–10 μM), HaSCP-2 (with final concentration of 5 μM) was incubated with NBD-cholesterol (with final concentration of 1.25 μM) in 100 μl of 10 mM KHPO4 buffer (pH 7.5) at 25 °C. Mixture samples were added into 96-well plates and fluorescence intensity was measured on the microplate reader (GeminiXPS, Molecular Devices). Excitation was at 485 nm and emission was measured at 530 nm. The results are analyzed from three repeated experiments with standard deviations. All the data were processed using a single site competition, non-linear regression model in the GraphPad PRISM software version 4.0 (GraphPad). The 50% effective concentration (EC50) was obtained using the equation 2:

HaSCP-2 F53A = HaSCP-2 F53A (Helicoverpa armigera, UniProt K7NSY9, F443A); assay type: binding; conditions: mutant F53A; P vs WT 0.031
Excerpt: (§1) In order to further confirm the key residues of HaSCP-2 that are involved in the ligand binding, based on the HaSCP-2 structure and docking simulation results we selected several predicted amino acid residues as shown in Table 3 (cholesterol and β-sitosterol) to perform single site mutation experiments to investigate the mechanism of ligand binding in HaSCP-2.
(§2) Single site amino acid mutations in the pGEX-KG/trHaSCP-2 were introduced using the QuikChange II Site-Directed Mutagenesis kit (Stratagene, La Jolla, CA). The Y51, F53, F89, I91, F110, I117 and Q131 sites of HaSCP-2 were selected to perform mutation.
(§3) HaSCP-2 binding activity to cholesterol was determined by using NBD-cholesterol binding assays. In truncation experiments, deduced HaSCP-2 and truncated HaSCP-2 were used for NBD-cholesterol binding assay; while as in mutation experiment, truncated HaSCP-2 (defined as wild type HaSCP-2) and mutated HaSCP-2 were assayed. HaSCP-2 was diluted in 10 mM KHPO4 buffer (pH 7.4) to a serial of varied concentrations […], respectively.

HaSCP-2 F110W = HaSCP-2 F110W (Helicoverpa armigera, UniProt K7NSY9, F500W); assay type: binding; conditions: mutant F110W; P vs WT 0.019
Excerpt: as §1, §2, §3

HaSCP-2 I117M = HaSCP-2 I117M (Helicoverpa armigera, UniProt K7NSY9, I507M); assay type: binding; conditions: mutant I117M; P vs WT 0.043
Excerpt: as §1, §2, §3

HaSCP-2 F53W = HaSCP-2 F53W (Helicoverpa armigera, UniProt K7NSY9, F443W); assay type: binding; conditions: mutant F53W; P vs WT 0.026
Excerpt: as §1, §2, §3

HaSCP-2 F89A = HaSCP-2 F89A (Helicoverpa armigera, UniProt K7NSY9, F479A); assay type: binding; conditions: mutant F89A; P vs WT 0.038
Excerpt: as §1, §2, §3

HaSCP-2 Q131A = HaSCP-2 Q131A (Helicoverpa armigera, UniProt K7NSY9, Q521A); assay type: binding; conditions: mutant Q131A; P vs WT 0.034
Excerpt: as §1, §2, §3

HaSCP-2 Y51A = HaSCP-2 Y51A (Helicoverpa armigera, UniProt K7NSY9, Y441A); assay type: binding; conditions: mutant Y51A; P vs WT 0.023
Excerpt: as §1, §2, §3

[2] = target: truncated HaSCP-2 (trHaSCP-2) (Helicoverpa armigera, UniProt K7NSY9); experiment: NBD-cholesterol binding assay, truncated (wild type) HaSCP-2; conditions: NBD-cholesterol 0.25 μM, protein 25 nM to 15 μM, one site binding non-linear regression, R^2 = 0.99
Description: (§4) NBD-cholesterol binding assays were performed to investigate the biological function of HaSCP-2 in this study. Both the recombinant full length and trHaSCP-2 were examined for NBD-cholesterol binding (Kd). Glutathione S-transferase (GST) was used as a negative control as before. The final concentration of NBD-cholesterol was kept constant at 0.25 μM and the concentration of full length or truncated HaSCP-2 was tested in a range from 25 nM to 15 μM. The increasing concentration of full length or truncated HaSCP-2 led to the increase in the fluorescence emission value of NBD-cholesterol. […] The binding curves were analyzed by using the one site binding non-linear regression model adopted in the similar studies. […] It is quite likely that the N-terminal and C-terminal residues that were deleted may not be necessary for the ligand binding activity of HaSCP-2, as shown that no significant differences in binding affinity between the truncated HaSCP-2 and full length HaSCP-2.
(§5) HaSCP-2 binding activity to cholesterol was determined by using NBD-cholesterol binding assays. […] Then, the samples were applied to measure the fluorescence signals using a fluorescence microplate reader (GeminiXPS, Molecular Devices). Fluorescence was excited at 485 nm and the emission was measured at 530 nm. […]

full length HaSCP-2 = full length HaSCP-2 (Helicoverpa armigera, UniProt K7NSY9); experiment: NBD-cholesterol binding assay, full length (deduced) HaSCP-2; conditions: NBD-cholesterol 0.25 μM, protein 25 nM to 15 μM, one site binding non-linear regression, R^2 = 0.99
Description: as §4, §5

Chain of HaSCP-2 (K7NSY9 entry or part of it): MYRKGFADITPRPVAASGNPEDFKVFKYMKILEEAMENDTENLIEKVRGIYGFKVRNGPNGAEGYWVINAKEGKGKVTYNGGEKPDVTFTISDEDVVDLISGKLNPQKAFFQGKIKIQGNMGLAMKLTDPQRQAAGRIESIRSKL
Chain of HaSCP-2 Q131A (K7NSY9 entry or part of it Q521A): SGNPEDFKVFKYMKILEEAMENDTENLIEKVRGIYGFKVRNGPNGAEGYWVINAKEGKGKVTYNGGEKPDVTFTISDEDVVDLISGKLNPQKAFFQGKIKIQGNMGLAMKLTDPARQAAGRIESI
Chain of full length HaSCP-2 (K7NSY9 entry or part of it): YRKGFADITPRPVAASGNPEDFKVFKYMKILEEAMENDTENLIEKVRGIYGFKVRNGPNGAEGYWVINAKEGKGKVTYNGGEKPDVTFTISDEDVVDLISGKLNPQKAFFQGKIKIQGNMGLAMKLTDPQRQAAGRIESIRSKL
Chain of truncated HaSCP-2 (trHaSCP-2) (K7NSY9 entry or part of it): as the sequence (K7NSY9 entry or part of it Q521A) above, with A115Q counted along it
Chain of HaSCP-2 F53A (K7NSY9 entry or part of it F443A): as the sequence (K7NSY9 entry or part of it Q521A) above, with F37A, A115Q counted along it
Chain of HaSCP-2 F53W (K7NSY9 entry or part of it F443W): as the sequence (K7NSY9 entry or part of it Q521A) above, with F37W, A115Q counted along it
Chain of HaSCP-2 I117M (K7NSY9 entry or part of it I507M): as the sequence (K7NSY9 entry or part of it Q521A) above, with I101M, A115Q counted along it
Chain of HaSCP-2 F89A (K7NSY9 entry or part of it F479A): as the sequence (K7NSY9 entry or part of it Q521A) above, with F73A, A115Q counted along it
Chain of HaSCP-2 F110W (K7NSY9 entry or part of it F500W): as the sequence (K7NSY9 entry or part of it Q521A) above, with F94W, A115Q counted along it
Chain of HaSCP-2 Y51A (K7NSY9 entry or part of it Y441A): as the sequence (K7NSY9 entry or part of it Q521A) above, with Y35A, A115Q counted along it

| Structure (SMILES) | cholesterol levels in the fat body vs control group ([1]; larvae treated at 3rd instar stage via diet, p = 0.023) | EC50 (HaSCP-2) | Kd (HaSCP-2 F53A) | Kd (HaSCP-2 F110W) | Kd (HaSCP-2 I117M) | Kd (HaSCP-2 F53W) | Kd (HaSCP-2 F89A) | Kd (HaSCP-2 Q131A) | Kd (HaSCP-2 Y51A) | Kd [2] | Kd (full length HaSCP-2) | decrease in the cholesterol levels in the fat body ([1]; treatment started at 3rd instar stadium via diet, p = 0.05) |
| --- | --- | --- | --- | --- | --- | --- | --- | --- | --- | --- | --- | --- |
| Br.CC(=O)Nc1ccc(Nc2nc(-c3ccc(Cl)c(Cl)c3)cs2)cc1 [AeSCPI-1, N-(4-{[4-(3,4-dichlorophenyl)-1,3-thiazol-2-yl]amino}phenyl) acetamide hydrobromide] | significantly lower | 760 nM | – | – | – | – | – | – | – | – | – | – |
| C[C@H](CNc1ccc([N+](=O)[O-])c2nonc12)[C@H]1CC[C@H]2[C@@H]3CC=C4C[C@@H](O)CC[C@]4(C)[C@H]3CC[C@]12C [NBD-cholesterol] | – | – | 3070 nM | 3240 nM | 1800 nM | 3410 nM | 3270 nM | 3770 nM | 2650 nM | 2450 nM | 2800 nM | – |
| COc1c(O)cc2oc3cc(O)c(CC=C(C)C)c(O)c3c(=O)c2c1CC=C(C)C [α-mangostin, 1,3,6-trihydroxy-7-methoxy-2,8-bis(3-methylbut-2-enyl)-9H-xanthen-9-one] | – | 730 nM | – | – | – | – | – | – | – | – | – | 2 fold |
